Assay results taken from patent US20260216099A1, “BROMOQUINONE AS A TREATMENT FOR OBESITY AND CANCER” (priority 2023, published 2026).
“Also recorded” adds a separate entry of the source.

Columns and labels:
[1] = system: commercially available cell lines; assay: Cell growth of commercially available cell lines (halogen-Q0C10); type: cell-based; conditions: many commercially available cell lines
[2] = system: rM-1, ARPE-19 and Hep G2 cell lines; assay: Cell counting assay, statements for the three cell lines together; type: cell-based, Rat; Human; conditions: for effect on cell growth: same conditions as bromoquinone (up to 10 μM, 48 hours)
Description: (§1) Cell Counting Assay: For the cell counting assay, rMc-1, ARPE-19, and HepG2 cells were cultured in DMEM with 4.5 g/L glucose supplemented with 10% fetal bovine serum (FBS), penicillin, and streptomycin. These cells were seeded at 50% confluency before bromoquinone treatment. About 5,000 cells were seeded in a 24-well plate and treated with various amounts of bromoquinone and incubated at 37° C. under 5% CO2. Cell growth was examined by cell counting stained with Trypan Blue. The Raw264.7 and L929 cells were cultured in DMEM supplemented with 10% (vol/vol) heat-inactivated FBS (SH30910.03; Hyclone) at 37° C. and 5% CO2. THP-1 cells were cultured in RPMI-1640 medium supplemented with 10% (v/v) heat-inactivated FBS at 37° C. and 5% CO2.
(§2) When the cell lines (rM-1, ARPE-19 and Hep G2) were cultured for 48 hours in their corresponding media in the presence of various concentrations (0, 0.5, 2.5. 5, and 10 μM) of bromoquinone, the cell survival rate decreased as the concentration of bromoquinone increased. When the concentration of bromoquinone was 10 μM, the cell survival rate decreased by 70-80%, while under the same conditions, no effect on cell growth was observed if normal coenzyme Q or Q0C10 was used.

[3] = system: INS-1 cell line; assay: Cell growth inhibition (FIG. 4); type: cell-based, Rat; conditions: INS-1, highest concentration tested
Description: (§3) FIGS. 4A, 4B, and 4C illustrate the effect of bromoquinone on cell growth of HEK293, HeLa, INS-1, and ADSC cells. […] Cells were stained with bisbenzimide.
(§4) Cell Attachment Assay: For the cell attachment assay, Raw264.7 and L929 cells were pre-seeded (100,000 cells/well) in 12-well plates (overnight incubation) at 37° C. and 5% CO2. Bromoquinone was added 24 hours after pre-seeding, and cell attachment was determined by counting attached cells at 72 hours post-treatment. THP-1 cells were pre-seeded (100,000 cells/well) in the presence of 320 nM phorbol-12-myristate-13-acetate (PMA) in 12-well plates (overnight incubation) at 37° C. and 5% CO2. Bromoquinone was added 24 hours after pre-seeding, and cell attachment was determined by counting attached cells at 72 hours post-treatment. Raw264.7, L929, and THP-1 cells were cultured in 12-well plates (100,000 cells/well) in the presence of bromoquinone for 72 hours at 37° C. and 5% CO2. The live cell number was determined by Trypan Blue staining. HEK293 and HeLa cells were cultured in DMEM supplemented with 10% (v/v) fetal bovine serum and 1% (v/v) penicillin-streptomycin. INS-1 cells were cultured in RPMI 1640 media supplemented with 10% (v/v) FBS and 1% (v/v) penicillin-streptomycin. All the cells were incubated at 37° C. and 5% CO2 atmosphere in 10-cm plates. […]

[4] = system: Hep G2 cells; assay: Cell counting assay (Trypan Blue), cell growth; type: cell-based, Human; conditions: for Effect of Bromoquinone on the Growth (cell survival, % of 0 μM): Hep G2 cells, 48 hours
Description: as §1, §2

[5] = system: ARPE19 cells; assay: Cell counting assay (Trypan Blue), cell growth; type: cell-based, Human; conditions: 48 hours
Description: as §1, §2

[6] = Redox potential; type: physicochemical; conditions: difference to Coenzyme Q10
[7] = system: rMC-1 cells; assay: Cell counting assay (Trypan Blue), cell growth; type: cell-based, Rat; conditions: 48 hours
Description: as §1, §2

[8] = system: HEK-293 cells; assay: Cell growth by cell counting, Trypan Blue and hemocytometer (FIG. 4A); type: cell-based, Human
Description: as §3
(§5) Cell Attachment Assay: For the cell attachment assay, Raw264.7 and L929 cells were pre-seeded (100,000 cells/well) in 12-well plates (overnight incubation) at 37° C. and 5% CO2. Bromoquinone was added 24 hours after pre-seeding, and cell attachment was determined by counting attached cells at 72 hours post-treatment. THP-1 cells were pre-seeded (100,000 cells/well) in the presence of 320 nM phorbol-12-myristate-13-acetate (PMA) in 12-well plates (overnight incubation) at 37° C. and 5% CO2. Bromoquinone was added 24 hours after pre-seeding, and cell attachment was determined by counting attached cells at 72 hours post-treatment. Raw264.7, L929, and THP-1 cells were cultured in 12-well plates (100,000 cells/well) in the presence of bromoquinone for 72 hours at 37° C. and 5% CO2. The live cell number was determined by Trypan Blue staining. HEK293 and HeLa cells were cultured in DMEM supplemented with 10% (v/v) fetal bovine serum and 1% (v/v) penicillin-streptomycin. INS-1 cells were cultured in RPMI 1640 media supplemented with 10% (v/v) FBS and 1% (v/v) penicillin-streptomycin. All the cells were incubated at 37° C. and 5% CO2 atmosphere in 10-cm plates. When the cells reached about-80% confluency, they were harvested and cultured on 96-well plates with 5×10^3 cells seeded per well. For each cell line, three 96-well plates were prepared—one for MTT assay and two for bisbenzimide-based nuclear fluorescent stain assay. After 24-hour incubation, the culture medium was replaced by the same medium containing various concentrations (0, 4, 8, 16, 32, and 64 μM) of bromoquinone. Three replicates were made for each condition. The plates then continued to be incubated for another 24 hours (two plates) or 48 hours (one plate). One plate with 24-hour treatment was used for the MTT cell viability assay. The other 24-hour treatment plate and the 48-hour treatment plate were used for the Bisbenzimide-based nuclear fluorescent stain cell imaging.
(§6) As described above, cell lines were cultured in their corresponding media in the presence of various concentrations of bromoquinone (0, 2, 4, 8, 16, 32, and 64 μM) for 48 and 72 hours. […] Similar results were obtained using the MTT assay (FIG. 4B). As expected, when the incubation was prolonged to 72 hours, more inhibition was observed.

[9] = system: HeLa cells; assay: as above; type: cell-based, Human
Description: as §3, §5, §6

[10] = system: ADSC cells; assay: as above; type: cell-based, Human
Description: as §3, §5, §6

[11] = system: isolated beef liver mitochondria; assay: Energy coupling (oxidative phosphorylation) in isolated mitochondria treated with bromoquinone; type: biochemical; conditions: NADH linked substrate; 2 instead of 3
Description: Introducing an electron-withdrawing group such as bromine should have an effect on the redox potential and UV spectrum, and this is indeed the case. Bromoquinone has a higher redox potential than that of Coenzyme Q10, by about 30 mV and UV spectral shift by 24 nm. A decrease of approximately 30% of energy conservation efficiency has been observed in isolated mitochondria that were treated with bromoquinone. This decrease may be due to the loss of energy conservation site II at Complex III in the bromoquinone-treated mitochondria (2).
When the rats were given 0.3 mL of a high fat mixture daily in addition to normal diet, a significant increase in weight gain was observed. […] Using NADH linked substrate 6-Br-Q0C10 treated mitochondria has a P/O ratio of 2 instead of 3. 6-Br-Q0C10 causes a by-passing of oxidative phosphorylation site 2 because of its high redox-potential.

[12] = system: L-929, Raw 264-7 and THP-1 cells; assay: Cell growth, live cell number by Trypan Blue (FIG. 3A); type: cell-based, Mouse; Human
Description: as §1
Cell Attachment Assay: For the cell attachment assay, Raw264.7 and L929 cells were pre-seeded (100,000 cells/well) in 12-well plates (overnight incubation) at 37° C. and 5% CO2. Bromoquinone was added 24 hours after pre-seeding, and cell attachment was determined by counting attached cells at 72 hours post-treatment. […] Bromoquinone was added 24 hours after pre-seeding, and cell attachment was determined by counting attached cells at 72 hours post-treatment. […] The live cell number was determined by Trypan Blue staining. […]

[13] = Rat growth study: body weight gain, toxicity, food and water consumption; type: in vivo
Description: 6-Br-Q0C10: Crude 6-Br-Q0C10 was available in the laboratory. It was further purified to homogeneity using thin layer chromatography. The purity of 6-Br-Q0C10 was confirmed by its absorption peak at 303 nm and the concentration was determined spectrophotometrically, using a millimolar extinction coefficient of 20 cm^−1 (13), Carboyxmethyl cellulose was obtained from Amazon. Olive oil and unsalted butter were obtained from the local supermarket. 9 Male F344 (born on Sep. 28, 2023) were purchased from Evigo RMS, Inc, 8520 Allison Pointe Blvd, Suite 4000, Indianapolis, Indiana 46250 on Oct. 17, 2023.
The rats were divided into three groups, three rats in each group. We followed their growth by body weight gained daily until Nov. 5, 2023, and then one group of rats received the 6-Br-Q0C10 treatment, and the second group received only the carrier media used to dissolve the 6-Br-Q0C10, and the third group was used as control without any treatment. All rats had free access to rat chow and water.
Various concentrations of 6-Br-Q0C10 were dissolved in 1% and 1.5% CMC, 40% ethanol, and a mixture of oil and unsalted butter (67:33). 6-Br-Q0C10 solutions and carriers were given to the rats by IG in a volume of 0.3 mL daily. The body weights of the rats were measured and recorded individually and as a group. JACUC Protocol No: SC2101

[14] = system: L-929, Raw 264-7 and THP-1 cells; assay: Cell attachment assay (FIG. 3B); type: cell-based, Mouse; Human; conditions: 72 hours post-treatment
Description: as §4, with “plates. When the cells reached about-80% confluency, they were harvested and cultured on 96-well plates with 5×10^3 cells seeded per well.” for “plates.”

CCCCCCCCCCC1=C(Cl)C(=O)C(OC)=C(OC)C1=O [6-Cl-Q0C10, 6-Chloro-2,3-dimethoxy-5-decyl-1,4-benzoquinone]
reducing cell growth [1]: effective in reducing cell growth

CCCCCCCCCCC1=C(C)C(=O)C(OC)=C(OC)C1=O [Q0C10, 2,3-dimethoxy-5-decyl-6-methyl-1,4-benzoquinone]
effect on cell growth [2]: no effect

CCCCCCCCCCC1=C(Br)C(=O)C(OC)=C(OC)C1=O [6-Br-Q0C10, 6-Bromo-2,3-dimethoxy-5-decyl-1,4-benzoquinone]
inhibition (cell growth) [3]: less than 20%
Effect of Bromoquinone on the Growth (cell survival, % of 0 μM) ([4]; 0.5 μM bromoquinone): 103.1%
Effect of Bromoquinone on the Growth (cell survival, % of 0 μM) ([4]; 1 μM bromoquinone): 107.8%
Effect of Bromoquinone on the Growth (cell survival, % of 0 μM) ([4]; 2.5 μM bromoquinone): 104.2%
Effect of Bromoquinone on the Growth (cell survival, % of 0 μM) ([4]; 5 μM bromoquinone): 98.1%
Effect of Bromoquinone on the Growth (cell survival, % of 0 μM) ([4]; 10 μM bromoquinone): 93.3%
effect on Hep-G2 (cell growth) ([4]; even at 10 μM): very small
Effect of Bromoquinone on the Growth (cell survival, % of 0 μM) ([5]; 0.5 μM bromoquinone): 85.4%
Effect of Bromoquinone on the Growth (cell survival, % of 0 μM) ([5]; 1 μM bromoquinone): 80.9%
Effect of Bromoquinone on the Growth (cell survival, % of 0 μM) ([5]; 2.5 μM bromoquinone): 60.0%
Effect of Bromoquinone on the Growth (cell survival, % of 0 μM) ([5]; 5 μM bromoquinone): 41.9%
Effect of Bromoquinone on the Growth (cell survival, % of 0 μM) ([5]; 10 μM bromoquinone): 26.6%
redox potential higher than that of Coenzyme Q10 [6]: about 30 mV
Effect of Bromoquinone on the Growth (cell survival, % of 0 μM) ([7]; 0.5 μM bromoquinone): 88.2%
Effect of Bromoquinone on the Growth (cell survival, % of 0 μM) ([7]; 1 μM bromoquinone): 80.1%
Effect of Bromoquinone on the Growth (cell survival, % of 0 μM) ([7]; 2.5 μM bromoquinone): 68.1%
Effect of Bromoquinone on the Growth (cell survival, % of 0 μM) ([7]; 5 μM bromoquinone): 36.2%
Effect of Bromoquinone on the Growth (cell survival, % of 0 μM) ([7]; 10 μM bromoquinone): 27.9%
decrease of cell survival rate ([2]; 10 μM, 48 hours): 70-80%
inhibition (cell growth, cell counting) ([8]; HEK-293, 48 hours of treatment, FIG. 4A): 69%
inhibition (cell growth) ([8]; HEK-293, 72 hours): 95%
inhibition (cell growth, cell counting) ([9]; 48 hours of treatment, FIG. 4A): 66%
inhibition (cell growth) ([9]; 72 hours): 97%
inhibition (cell growth, cell counting) ([10]; 48 hours of treatment, FIG. 4A): 82%
inhibition (cell growth) ([10]; 72 hours): 90%
P/O ratio [11]: 2
inhibition at 50 µM [12]: ≤ 50%
food and water consumption ([13]; 6-Br-Q0C10 treated rats): slight increase
reduction in body weight gain ([13]; rats, 0.5 mg/IG in 0.3 mL oil/butter (67%/33%) daily, compared to carrier mixture only): 30-40%
toxicity effect on rats ([13]; rats, even at the highest concentrations used): no toxicity effect
effect on growth (body weight gain) ([13]; rats, low concentrations, growth period): little effect; also recorded: slight
toxicity ([13]; rats, lower concentrations): no toxicity
inhibition at 50 µM [14]: 70%

COC1=C(OC)C(=O)C(CC=C(C)CCC=C(C)CCC=C(C)CCC=C(C)CCC=C(C)CCC=C(C)CCC=C(C)CCC=C(C)CCC=C(C)CCC=C(C)C)=C(C)C1=O [coenzyme Q10, 2,3-dimethoxy-5-(isoprenyl)10-6-methyl-1,4-benzoquinone]
effect on cell growth [2]: no effect
